# Where two headings read alike, the source gives them in different places.
# Molecular target: SARS-CoV-2 3CLpro (Severe acute respiratory syndrome coronavirus 2, UniProt P0DTD1)
# Experiment: biochemical
# Type: biochemical
# Settings: for reduction in levels of inhibition upon addition of 0.01% Triton X-100: with vs without 0.01% Triton X-100
# [1] = with 0.01% Triton X-100; mean ± SD of triplicate; 4 h, 30 °C; read-out: A) EC50 with Triton X-100
# [2] = without Triton X-100; mean ± SD of triplicate; 4 h, 30 °C; read-out: B) EC50 without Triton X-100
# [3] = EC50 with Triton X-100 / EC50 without Triton X-100, ratio greater than 2 suggests aggregation-based inhibitor
# [4] = with 0.01% Triton X-100, read-out: EC50
Compound,EC50 [1] [nM],EC50 [2] [nM],reduction in levels of inhibition upon addition of 0.01% Triton X-100 [fold],Ratio (A/B) [3],Ratio (A/B),EC50 [4] [nM]
CN(C)C(=O)/N=N/C(=O)N(C)C [Diamide],17100 ± 20800,> 20000,–,–,–,–
CCN(CC)C(=S)SSC(=S)N(CC)CC [Disulfiram],–,–,> 2,–,–,–
Oc1ccc(C2CNCCc3c2cc(O)c(O)c3Cl)cc1 (stereo not shown) [Fenoldopam],> 20000,7190 ± 6080,–,–,–,–
N=C(N)NCCSSCCNC(=N)N [GED],5830 ± 664,3640 ± 2430,–,1.6,–,–
CC(=O)[C@]1(O)Cc2c(O)c3c(c(O)c2[C@@H](O[C@H]2C[C@H](N)[C@H](O)[C@H](C)O2)C1)C(=O)c1ccccc1C3=O [Idarubicin],> 20000,> 20000,–,–,–,–
CC(=O)NCCc1ccc(O)c(O)c1 [N-Acetyldopamine],2650 ± 550,1450 ± 222,–,–,1.8,–
CC(Cc1ccc(O)c(O)c1)C(C)Cc1ccc(O)c(O)c1 (stereo not shown) [Nordihydroguaiaretic acid],270 ± 58,214 ± 65,–,–,1.3,–
C=CCN1CCc2c(cc(O)c(O)c2Br)C(c2ccccc2)C1 (stereo not drawn) [R(+)-6-Bromo-APB],> 20000,> 20000,–,–,–,–
CN1CCc2cc(O)cc3c2[C@H]1Cc1ccc(O)c(O)c1-3 [R(−)-2-Hydroxyapomorphine],450 ± 78,420 ± 101,–,1.1,–,–
"Br.CCCN1CCc2cc(O)cc3c2[C@H]1Cc1ccc(O)c(O)c1-3 [R(−)-2-OH-NPA, R(−)-2,10,11-Trihydroxy-N-propylnoraporphine]",746 ± 91,715 ± 133,–,1.0,–,–
C=CCN1CCc2cccc3c2[C@H]1Cc1ccc(O)c(O)c1-3 [R(−)-N-Allylnorapomorphine],346 ± 80,379 ± 83,–,0.9,–,–
CN=c1nc(-c2ccccc2)n(-c2ccccc2)s1 [SCH-202676],274 ± 73,41 ± 8,> 2,6.7,–,–
CN1CCc2cc(O)c(O)cc2C(c2ccccc2)C1 (stereo not shown) [SKF 75670],17800 ± 8360,> 20000,–,–,–,–
CN1CCc2c(cc(O)c(O)c2Cl)C(c2cccc(Cl)c2)C1 (stereo not shown) [SKF 83565],> 20000,6030 ± 3630,–,–,–,–
C[n+]1cc2c3c(ccc2c2ccc4cc5c(cc4c21)OCO5)OCO3 [Sanguinarine],1780 ± 497,2240 ± 586,–,–,0.8,–
"Cc1ccc(S(=O)(=O)N[C@@H](CCCCN)C(=O)CCl)cc1 [TLCK, Tosyl-L-Lys chloromethyl ketone]",10600 ± 881,> 20000,–,–,–,10600
"Cc1ccc(S(=O)(=O)N[C@@H](Cc2ccccc2)C(=O)CCl)cc1 [TPCK, Tosyl-L-Phe chloromethyl ketone]",1740 ± 34,985 ± 175,–,–,1.8,1740
CC(C)N(CCC(=O)c1ccc2ccccc2c1)Cc1ccccc1 [ZM 39923],302 ± 38,289 ± 55,–,–,1.0,–
"O=C(N[C@@H](Cc1ccccc1)C(=O)CCl)OCc1ccccc1 [ZPCK, Z-L-Phe chloromethyl ketone]",234 ± 85,136 ± 21,–,–,1.7,230
"C[N+](C)(C)CCC(=O)c1cccc2ccccc12 [alpha-NETA, 2-(alpha-Naphthoyl)ethyltrimethylammonium]",227 ± 14,243 ± 51,–,–,0.9,–
CC(C)C[C@H](N)CS [l-Leucinethiol],4380 ± 770,1950 ± 110,–,–,2.2,–
Oc1ccc2c3c1O[C@H]1c4[nH]c5c(c4C[C@@]4(O)[C@@H](C2)N(CC2CC2)CC[C@]314)C[C@@]1(O)[C@H]2Cc3ccc(O)c4c3[C@@]1(CCN2CC1CC1)[C@H]5O4 [nor-Binaltorphimine],5200 ± 1160,2600 ± 1490,–,2.0,–,–
R(−)-Propylnorapomorphine [R(−)-NPA],426 ± 17,426 ± 77,–,–,1.0,–
